According to US9365551B2, “2-(benzyloxy) benzamides as LRRK2 kinase inhibitors” (Glaxo Group Limited, priority 2010, dated 2016):
Where a name gives a salt, the structure may show the parent alone.

Experiments:
[1] = biological target: T1, 6His-Tev-LRRK2 (1326-2527) (Homo sapiens, UniProt Q5S007); assay: LRRK2 peptide substrate assay; type: biochemical; settings: mean pIC50 of multiple test results
T1 construct: A LRRK2 cDNA encoding residues 1326-2527 was received from Dundee University; made in house; host or cells: Spodoptera frugiperda (Sf9) insect cells, baculovirus (pFB-HTb)
T1 sequence (Q5S007 1326-2527): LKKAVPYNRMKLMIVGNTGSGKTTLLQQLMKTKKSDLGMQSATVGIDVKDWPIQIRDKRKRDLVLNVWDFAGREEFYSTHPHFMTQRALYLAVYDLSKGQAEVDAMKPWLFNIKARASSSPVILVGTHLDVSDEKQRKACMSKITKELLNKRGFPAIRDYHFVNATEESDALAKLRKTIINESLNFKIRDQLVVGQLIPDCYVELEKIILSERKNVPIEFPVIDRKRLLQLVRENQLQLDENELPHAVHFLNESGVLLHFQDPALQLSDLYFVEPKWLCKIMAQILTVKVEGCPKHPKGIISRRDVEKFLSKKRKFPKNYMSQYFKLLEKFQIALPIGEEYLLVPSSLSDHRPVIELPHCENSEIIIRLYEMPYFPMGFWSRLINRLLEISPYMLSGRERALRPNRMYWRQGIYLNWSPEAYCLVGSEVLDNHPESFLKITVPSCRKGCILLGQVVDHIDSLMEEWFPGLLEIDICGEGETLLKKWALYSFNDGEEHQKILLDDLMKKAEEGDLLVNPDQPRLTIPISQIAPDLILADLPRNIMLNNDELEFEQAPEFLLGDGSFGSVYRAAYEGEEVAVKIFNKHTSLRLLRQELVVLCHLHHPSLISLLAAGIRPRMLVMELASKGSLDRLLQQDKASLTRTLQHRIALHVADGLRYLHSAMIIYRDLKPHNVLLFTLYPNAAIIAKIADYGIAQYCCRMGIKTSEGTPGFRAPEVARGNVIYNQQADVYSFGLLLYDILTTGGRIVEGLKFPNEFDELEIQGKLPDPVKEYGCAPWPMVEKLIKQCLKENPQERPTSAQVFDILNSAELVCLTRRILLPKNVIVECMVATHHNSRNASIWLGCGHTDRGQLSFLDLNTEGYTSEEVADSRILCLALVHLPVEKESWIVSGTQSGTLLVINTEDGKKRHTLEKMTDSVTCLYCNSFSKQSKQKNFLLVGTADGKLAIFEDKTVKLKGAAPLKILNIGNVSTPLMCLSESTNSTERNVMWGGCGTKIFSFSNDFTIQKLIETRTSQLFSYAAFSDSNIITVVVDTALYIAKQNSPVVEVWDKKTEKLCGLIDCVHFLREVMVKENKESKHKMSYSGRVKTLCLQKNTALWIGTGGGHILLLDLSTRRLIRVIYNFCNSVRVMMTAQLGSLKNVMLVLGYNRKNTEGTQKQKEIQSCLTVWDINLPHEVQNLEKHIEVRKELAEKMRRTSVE
Method: (§1) Compounds of formula (I) may be tested for in vitro kinase activity in accordance with the following assays, using the non natural, in vitro, substrates moesin and the Longer Biotin-LRRKtide. Moesin and a shorter version of the peptide were identified as substrates in Jaleel et al. (2007, Biochem J, 405: 307-317).
LRRK2 Peptide Substrate Assay
a) 100 nl of a 1:4 serial dilution of test compound with a top final assay concentration of 30 μM is added to certain wells in a low volume 384 well black plate. 100 nl of DMSO is used in certain wells as controls.
(§2) b) 3 μl enzyme solution (80 nM purified recombinant 6His-Tev-LRRK2 (1326-2527) in assay buffer: 50 mM Hepes (pH 7.2), 10 mM MgCl2, 150 mM NaCl, 5% glycerol, 0.0025% triton X-100 and 1 mM DTT) is added to certain wells. 3 μl assay buffer is added to certain wells as a 100% inhibition (no enzyme) control. c) After incubation at room temperature for 30 minutes, 3 μl substrate solution (2 μM Biotin-LRRKtide peptide substrate and ATP at Km in assay buffer) is added to each well. Plates are then incubated for a further 1-2 hours at room temperature (incubation time varies depending upon rate and linearity of reaction with differing enzyme batches). d) 6 μl detection solution (50 nM Streptavidin SureLight® APC (PerkinElmer), 4 nM Eu-W1024 labelled anti-rabbit IgG antibody (PerkinElmer), 1:500 dilution (dilution determined on a batch to batch basis) of Phospho-Ezrin (Thr567)/Radixin (Thr564)/Moesin (Thr558) Polyclonal Antibody (New England Biolabs) and 60 mM EDTA in buffer: 40 mM Hepes (pH 7.2), 150 mM NaCl, 0.03% BSA) is added to each well. Plates are then incubated for a further 2 hours at room temperature before reading on a suitable plate reader (Excitation 330 nm, emission 620 nm (Eu) and 665 nm (APC)). Data is analysed using ActivityBase software (IDBS). LRRK2 AlphaScreen Desensitised Protein Substrate Assay a) 100 nl of a 1:4 serial dilution of test compound with a top final assay concentration of 30 μM is added to certain wells in a low volume 384 well black plate. 100 nl of DMSO is used in certain wells as controls. b) 3 μl enzyme solution (80 nM purified recombinant 6His-Tev-LRRK2 (1326-2527) in assay buffer: 50 mM Hepes (pH 7.2), 10 mM MgCl2, 150 mM NaCl, 5% glycerol, 0.0025% triton X-100 and 1 mM DTT) is added to certain wells. 3 μl assay buffer is added to certain wells as a 100% inhibition (no enzyme) control. c) After incubation at room temperature for 30 minutes, 3 μl substrate solution (200 nM GST-PS-Moesin (400-577) and 2 mM ATP in assay buffer) is added to each well. Plates are then incubated for 20 minutes at room temperature. d) 6 μl detection solution (1:250 dilution of AlphaLisa Protein A Acceptor beads (PerkinElmer), 1:64 dilution of AlphaLisa Gluthathione Donor beads (PerkinElmer) and 1:600 dilution (dilution determined on a batch to batch basis) of Phospho-Ezrin (Thr567)/Radixin (Thr564)/Moesin (Thr558) Polyclonal Antibody (New England Biolabs) in a buffer: 50 mM Hepes (pH 7.5), 250 mM NaCl, 60 mM EDTA, 1% PEG and 0.01% Brij 35) is added to each well. Plates are then incubated for a further 2 hours at room temperature in the dark before reading on an EnVision™ plate reader with AlphaScreen HTS turbo option module and AlphaScreen settings. Data is analysed using ActivityBase software (IDBS). Pharmacological Data

[2] = biological target: T1, 6His-Tev-LRRK2 (1326-2527); assay: LRRK2 AlphaScreen desensitised protein substrate assay; type: biochemical; settings: mean pIC50 of multiple test results
Method: as §1, §2

[3] = stated as threshold, read-out: pIC50 in the LRRK2 peptide substrate assay (bounds) (converted)
[4] = stated as threshold, read-out: pIC50 in the LRRK2 alphascreen desensitised protein substrate assay (bounds) (converted)
[5] = Biotin-LRRKtide peptide substrate, ATP at Km, read-out: LRRK2 peptide substrate assay (pIC50) (converted)
[6] = GST-PS-Moesin (400-577) substrate, 2 mM ATP, read-out: LRRK2 alphascreen desensitized protein substrate assay (pIC50) (converted)

O=C(Nc1ccnnc1)c1cc(Br)c(CN2CCOCC2)cc1OCc1ccccc1 [Example 1, 5-Bromo-4-(4-morpholinylmethyl)-2-[(phenylmethyl)oxy]-N-4-pyridazinylbenzamide] was tested, and the IC50 [1, 3] was at most 100 nM and the IC50 [2, 4] was at most 25100 nM.
O=C(Nc1cccnc1)c1cc(Br)c(CN2CCOCC2)cc1OCc1ccccc1 [Example 2, 5-Bromo-4-(4-morpholinylmethyl)-2-[(phenylmethyl)oxy]-N-3-pyridinylbenzamide] showed an IC50 [1, 5] of 10 nM, an IC50 [1, 3] of at most 10 nM and an IC50 [2, 6] of 251 nM. The IC50 [2, 4] was at most 316 nM.
Cn1cc(-c2cc(C(=O)Nc3ccnnc3)c(OCc3ccccc3)cc2CN2CCOCC2)cn1 [Example 3, 5-(1-Methyl-1H-pyrazol-4-yl)-4-(4-morpholinylmethyl)-2-[(phenylmethyl)oxy]-N-4-pyridazinylbenzamide] was tested, and the IC50 [1, 3] was at most 100 nM and the IC50 [2, 4] was at most 25100 nM.
Cn1cc(-c2cc(C(=O)Nc3cccnc3)c(OCc3ccccc3)cc2CN2CCOCC2)cn1 [Example 4, 5-(1-Methyl-1H-pyrazol-4-yl)-4-(4-morpholinylmethyl)-2-[(phenylmethyl)oxy]-N-3-pyridinylbenzamide] was tested, and the IC50 [1, 5] was 15.8 nM, the IC50 [1, 3] was at most 100 nM and the IC50 [2, 6] was 126 nM. The IC50 [2, 4] was at most 316 nM.
With Cc1cc(OCc2ccccc2)c(C(=O)Nc2ccnnc2)cc1Br [Example 5, 5-Bromo-4-methyl-2-[(phenylmethyl)oxy]-N-4-pyridazinyl benzamide] the IC50 [1, 3] was at most 10 nM and the IC50 [2, 4] was at most 316 nM.
Cc1cc(OCc2ccccc2)c(C(=O)Nc2cccnc2)cc1Br [Example 6, 5-Bromo-4-methyl-2-[(phenylmethyl)oxy]-N-3-pyridinylbenzamide] was tested, and the IC50 [1, 3] was at most 10 nM and the IC50 [2, 4] was at most 316 nM.
Cc1cc(OCc2ccccc2)c(C(=O)Nc2cccnc2)cc1-c1cnn(C)c1 [Example 7, 4-Methyl-5-(1-methyl-1H-pyrazol-4-yl)-2-[(phenylmethyl)oxy]-N-3-pyridinylbenzamide] showed an IC50 [1, 5] of 15.8 nM, an IC50 [1, 3] of at most 100 nM and an IC50 [2, 6] of 158 nM. The IC50 [2, 4] was at most 316 nM.
Cc1cc(OCc2ccccc2)c(C(=O)Nc2ccnnc2)cc1-c1cnn(C)c1 [Example 8, 4-Methyl-5-(1-methyl-1H-pyrazol-4-yl)-2-[(phenylmethyl)oxy]-N-4-pyridazinylbenzamide] was tested, and the IC50 [1, 3] was at most 100 nM and the IC50 [2, 4] was at most 25100 nM.
Cc1cc(C(=O)Nc2cccnc2)c(OCc2ccccc2)cc1Br [Example 9, 4-Bromo-5-methyl-2-[(phenylmethyl)oxy]-N-3-pyridinylbenzamide] showed an IC50 [1, 5] of 10 nM, an IC50 [1, 3] of at most 10 nM and an IC50 [2, 6] of 126 nM. It also gave an IC50 [2, 4] of at most 316 nM.
Work on Cc1cc(C(=O)Nc2ccnnc2)c(OCc2ccccc2)cc1Br [Example 10, 4-Bromo-5-methyl-2-[(phenylmethyl)oxy]-N-4-pyridazinylbenzamide] yielded an IC50 [1, 5] of 6.31 nM, an IC50 [1, 3] of at most 10 nM and an IC50 [2, 6] of 100 nM. The IC50 [2, 4] was at most 316 nM.
Cc1cc(C(=O)Nc2cccnc2)c(OCc2ccccc2)cc1-c1cnn(C)c1 [Example 11, 5-Methyl-4-(1-methyl-1H-pyrazol-4-yl)-2-[(phenylmethyl)oxy]-N-3-pyridinylbenzamide] was tested, and the IC50 [1, 5] was 7.94 nM, the IC50 [1, 3] was at most 10 nM and the IC50 [2, 6] was 50.1 nM. It also gave an IC50 [2, 4] of at most 316 nM.
For Cc1cc(C(=O)Nc2ccnnc2)c(OCc2ccccc2)cc1-c1cnn(C)c1 [Example 12, 5-Methyl-4-(1-methyl-1H-pyrazol-4-yl)-2-[(phenylmethyl)oxy]-N-4-pyridazinylbenzamide], the IC50 [1, 5] was 10 nM, the IC50 [1, 3] was at most 10 nM and the IC50 [2, 6] was 100 nM. It also gave an IC50 [2, 4] of at most 316 nM.
Work on Cn1cc(-c2cc(OCc3ccc(F)cc3)c(C(=O)Nc3cccnc3)cc2CN2CCOCC2)cn1 [Example 13, 2-{[(4-Fluorophenyl)methyl]oxy}-4-(1-methyl-1H-pyrazol-4-yl)-5-(4-morpholinylmethyl)-N-3-pyridinylbenzamide] yielded an IC50 [1, 5] of 79.4 nM, an IC50 [1, 3] of at most 100 nM and an IC50 [2, 6] of 794 nM. For the same compound, the IC50 [2, 4] was at most 25100 nM.
Work on Cn1cc(-c2cc(OCc3ccc(F)cc3)c(C(=O)Nc3ccnnc3)cc2CN2CCOCC2)cn1 [Example 14, 2-{[(4-Fluorophenyl)methyl]oxy}-4-(1-methyl-1H-pyrazol-4-yl)-5-(4-morpholinylmethyl)-N-4-pyridazinylbenzamide] yielded an IC50 [1, 3] of at most 1260 nM and an IC50 [2, 4] of at most 25100 nM.
Compound Cn1cc(-c2cc(C(=O)Nc3cccc(Cl)c3)c(OCc3ccccc3)cc2CN2CCOCC2)cn1 [Example 50, 2-(benzyloxy)-N-(3-chlorophenyl)-5-(1-methyl-1H-pyrazol-4-yl)-4-(morpholinomethyl)benzamide, Hydrochloride] has an IC50 [1, 3] of at most 100 nM.
In the case of Cn1cc(-c2cc(C(=O)Nc3cccc(Cl)c3)c(OCc3ccccc3)cc2CN2CCOCC2)cn1 [Example 51, 2-(benzyloxy)-N-(3-chlorophenyl)-5-(1-methyl-1H-pyrazol-4-yl)-4-(morpholinomethyl)benzamide, Maleic acid salt], the IC50 [1, 3] is reported as at most 100 nM.
CN1CCN(C(=O)c2cc(OCc3ccccc3)c(C(=O)Nc3cccnc3)cc2Cl)CC1 [Example 54, 2-(benzyloxy)-5-chloro-4-(4-methylpiperazine-1-carbonyl)-N-(pyridin-3-yl)benzamide] gave an IC50 [1, 3] of at most 100 nM.
